Reference: patent US8871756B2 (Hoffmann-La Roche Inc., priority 2011, dated 2014)

Test system: RSV Long strain
Assay: Viral cytopathic effect (CPE) assay, anti-RSV activity
Format: cell-based, Respiratory Syncytial Virus
Details: human respiratory syncytial virus, 144 h, RSV Long strain (ATCC); cell viability after 6 days, Cell Counting kit-8
Protocol: Viral cytopathic effect (CPE) assay: To measure anti-RSV activity of compounds, 96-well plates are seeded with 6×10^3 cells per well in Dulbecco's modified Eagle's medium (DMEM) containing 10% fetal bovine serum (FBS). Cells are infected the next day with sufficient RSV Long strain (ATCC) to produce an approximately 80-90% cytopathic effect after 6 days, in the presence of serial half-log diluted compound in a total volume of 200 μL per well. The viability of cells is assessed after 6 days using Cell Counting kit-8 (Dojindo Molecular Technologies). The absorbance at 450 nm and referenced at 630 nm is measured to determine 50% effective concentration (EC50).
The compounds of the present invention were tested for their anti-RSV activity, and the activation as described herein. The Examples were tested in the above assay and found to have EC50 of about 0.0001 μM to about 10 μM.

Row | SMILES | EC50
1 | NCCNc1cc(N2CCSc3ccccc3C2)nc2ccc(Cl)cc12 [Example 4-2, N-[6-Chloro-2-(2,3-dihydro-1,4-benzothiazepin-4(5H)-yl)quinolin-4-yl]ethane-1,2-diamine] | 0.098 µM
2 | NCCCNc1cc(N2CCS(=O)(=O)c3ccccc3C2)nc2ccc(C3CC3)cc12 [Example 51, N-[6-Cyclopropyl-2-(1,1-dioxido-2,3-dihydro-1,4-benzothiazepin-4(5H)-yl)quinolin-4-yl]propane-1,3-diamine] | 0.056 µM
3 | Cc1ccc2nc(N3CCS(=O)(=O)c4ccccc4C3)cc(N3CCC(C(N)=O)C3)c2c1 (stereo not shown) [Example 79, 1-[2-(1,1-Dioxido-2,3-dihydro-1,4-benzothiazepin-4(5H)-yl)-6-methylquinolin-4-yl]pyrrolidine-3-carboxamide] | 2.79 µM
4 | Cc1ccc2c(c1)S(=O)(=O)CCN(c1cc(NCC3(CN)COC3)c3ccccc3n1)C2 [Example 3-7] | 0.009 µM
5 | OCC(O)Cc1cc(N2CCCc3ccccc3C2)nc2ccc(Cl)cc12 (stereo not shown) [Example 130-2, 3-[6-Chloro-2-(1,3,4,5-tetrahydro-2H-2-benzazepin-2-yl)quinolin-4-yl]propane-1,2-diol] | 7.27 µM
6 | NCCNc1cc(N2CCS(=O)(=O)c3ccccc3C2)nc2ccc(Cl)cc12 [Example 3-46, N-[6-Chloro-2-(1,1-dioxido-2,3-dihydro-1,4-benzothiazepin-4(5H)-yl)quinolin-4-yl]ethane-1,2-diamine] | 0.053 µM
7 | NCCNc1cc(N2CCCc3ccccc3C2)nc2c(Cl)cccc12 [Example 118-20, N-[8-Chloro-2-(1,3,4,5-tetrahydro-2H-2-benzazepin-2-yl)quinolin-4-yl]ethane-1,2-diamine] | 1.13 µM
8 | CCNCCNc1cc(N2CCS(=O)(=O)c3ccccc3C2)nc2ccc(C)cc12 [Example 3-37, N-[2-(1,1-Dioxido-2,3-dihydro-1,4-benzothiazepin-4(5H)-yl)-6-methylquinolin-4-yl]-N′-ethylethane-1,2-diamine] | 0.017 µM
9 | NCCNc1cc(N2CC[S+]([O-])c3ccccc3C2)nc2ccc(Cl)cc12 (stereo not shown) [Example 18-7, N-[6-Chloro-2-(1-oxido-2,3-dihydro-1,4-benzothiazepin-4(5H)-yl)quinolin-4-yl]ethane-1,2-diamine] | 0.023 µM
10 | N[C@@H]1CN(c2cc(N3CCS(=O)(=O)c4ccccc4C3)nc3ccc(Cl)cc23)C[C@H]1F (relative stereo) [Example 19-5, trans-1-[6-Chloro-2-(1,1-dioxido-2,3-dihydro-1,4-benzothiazepin-4(5H)-yl)quinolin-4-yl]-4-fluoropyrrolidin-3-amine] | 3.07 µM
11 | Cc1ccc2nc(N3CCS(=O)(=O)c4ccccc4C3)cc(NC3CCNC3)c2c1 (stereo not shown) [Example 21-4, 2-(1,1-Dioxido-2,3-dihydro-1,4-benzothiazepin-4(5H)-yl)-6-methyl-N-(pyrrolidin-3-yl)quinolin-4-amine] | 0.004 µM
12 | Cc1ccc2nc(N3CCS(=O)(=O)c4ccccc4C3)cc(NC(C)CC(N)=O)c2c1 (stereo not shown) [Example 36-2, 3-{[2-(1,1-Dioxido-2,3-dihydro-1,4-benzothiazepin-4(5H)-yl)-6-methylquinolin-4-yl]amino}butanamide] | 1.47 µM
13 | Cc1ccc2nc(N3CCNc4ccccc4C3)cc(NCCN)c2c1 [Example 133-2, N-[6-Methyl-2-(1,2,3,5-tetrahydro-4H-1,4-benzodiazepin-4-yl)quinolin-4-yl]ethane-1,2-diamine] | 0.186 µM
14 | Cc1ccc2nc(N3CCC(F)(F)c4ccccc4C3)cc(N3CCN(C)CC3)c2c1 [Example 110-13, 5,5-Difluoro-2-[6-methyl-4-(4-methylpiperazin-1-yl)quinolin-2-yl]-2,3,4,5-tetrahydro-1H-2-benzazepine] | 3.68 µM
15 | Cc1ccc2nc(N3CCC(F)(F)c4ccccc4C3)cc(N[C@H]3CC[C@@H](N)CC3)c2c1 [Example 110-9, cis-N-[2-(5,5-Difluoro-1,3,4,5-tetrahydro-2H-2-benzazepin-2-yl)-6-methylquinolin-4-yl]cyclohexane-1,4-diamine] | 1.37 µM
16 | Cc1ccc2nc(N3CCC(F)(F)c4ccccc4C3)cc(N(CCO)CCO)c2c1 [Example 110-11, 2,2′-{[2-(5,5-Difluoro-1,3,4,5-tetrahydro-2H-2-benzazepin-2-yl)-6-methylquinolin-4-yl]imino}diethanol] | 6.75 µM
17 | Cc1ccc2nc(N3CC[S+]([O-])c4ccccc4C3)nc(NCCCN)c2c1 (stereo not shown) [Example 56-6, N-[6-Methyl-2-(1-oxido-2,3-dihydro-1,4-benzothiazepin-4(5H)-yl)quinazolin-4-yl]propane-1,3-diamine] | 0.002 µM

Row | SMILES | EC50
18 | COc1ccc2c(c1)S(=O)(=O)CCN(c1cc(NCC3(N)COC3)c3cc(C)ccc3n1)C2 [Example 1-1, N-[(3-Aminooxetan-3-yl)methyl]-2-(8-methoxy-1,1-dioxido-2,3-dihydro-1,4-benzothiazepin-4(5H)-yl)-6-methylquinolin-4-amine] | 0.002 µM
19 | Cc1ccc2nc(N3CCS(=O)(=O)c4ccccc4C3)cc(N[C@H]3CNC[C@H]3O)c2c1 (relative stereo) [Example 28-4, cis-4-{[2-(1,1-Dioxido-2,3-dihydro-1,4-benzothiazepin-4(5H)-yl)-6-methylquinolin-4-yl]amino}pyrrolidin-3-ol] | 0.001 µM
20 | NCC1(CNc2cc(N3CCS(=O)(=O)c4ccccc4C3)nc3ccc(F)cc23)COC1 [Example 17-8, N-{[3-(Aminomethyl)oxetan-3-yl]methyl}-2-(1,1-dioxido-2,3-dihydro-1,4-benzothiazepin-4(5H)-yl)-6-fluoroquinolin-4-amine] | 0.021 µM
21 | Cc1ccc2nc(N3CCC(F)(F)c4ccccc4C3)cc(N3CCCNCC3)c2c1 [Example 111-2, 2-[4-(1,4-Diazepan-1-yl)-6-methylquinolin-2-yl]-5,5-difluoro-2,3,4,5-tetrahydro-1H-2-benzazepine] | 1.34 µM
22 | NCC1(CNc2nc(N3CCS(=O)(=O)c4ccccc4C3)nc3ccc(Cl)cc23)COC1 [Example 56-3, N-{[3-(aminomethyl)oxetan-3-yl]methyl}-6-chloro-2-(1,1-dioxido-2,3-dihydro-1,4-benzothiazepin-4(5H)-yl)quinazolin-4-amine] | 0.004 µM
23 | CSc1ccc2nc(N3CCS(=O)(=O)c4ccccc4C3)cc(NCCCN)c2c1 [Example 9-33, N-[2-(1,1-Dioxido-2,3-dihydro-1,4-benzothiazepin-4(5H)-yl)-6-(methylsulfanyl)quinolin-4-yl]propane-1,3-diamine] | 0.057 µM
24 | Cc1ccc2nc(N3CCS(=O)(=O)c4ccccc4C3)cc(NCC(F)(F)CN)c2c1 [Example 3-19, N-[2-(1,1-Dioxido-2,3-dihydro-1,4-benzothiazepin-4(5H)-yl)-6-methylquinolin-4-yl]-2,2-difluoropropane-1,3-diamine] | 0.009 µM
25 | NCCNc1cc(N2CCCc3cc(Br)ccc3C2)nc2ccc(Cl)cc12 [Example 118-1, N-[2-(7-Bromo-1,3,4,5-tetrahydro-2H-2-benzazepin-2-yl)-6-chloroquinolin-4-yl]ethane-1,2-diamine] | 1.98 µM
26 | Cc1ccc2nc(N3CCS(=O)(=O)c4ccccc4C3)cc(NCCN)c2c1F [Example 9-21, N-[2-(1,1-Dioxido-2,3-dihydro-1,4-benzothiazepin-4(5H)-yl)-5-fluoro-6-methylquinolin-4-yl]ethane-1,2-diamine] | 0.021 µM
27 | N[C@@H]1CN(c2cc(N3CCS(=O)(=O)c4ccccc4C3)nc3ccncc23)C[C@H]1O (relative stereo) [Example 24, trans-4-Amino-1-[2-(1,1-dioxido-2,3-dihydro-1,4-benzothiazepin-4(5H)-yl)-1,6-naphthyridin-4-yl]pyrrolidin-3-ol] | 0.016 µM
28 | Cc1ccc2nc(N3CCS(=O)(=O)c4ccccc4C3)nc(N[C@@H]3CNC[C@H]3F)c2c1 (relative stereo) [Example 92-2, N-(trans-4-Fluoropyrrolidin-3-yl)-6-methyl-2-(1,1-dioxido-2,3-dihydro-1,4-benzothiazepin-4(5H)-yl)quinazolin-4-amine] | 0.019 µM
29 | COc1ccc2nc(N3CCCc4ccccc4C3)cc(NCCN)c2c1 [Example 118-11, N-[6-Methoxy-2-(1,3,4,5-tetrahydro-2H-2-benzazepin-2-yl)quinolin-4-yl]ethane-1,2-diamine] | 0.323 µM
30 | NC1(CNc2nc(N3CCS(=O)(=O)c4ccccc4C3)nc3ccccc23)COC1 [Example 57-3, N-[(3-Aminooxetan-3-yl)methyl]-2-(1,1-dioxido-2,3-dihydro-1,4-benzothiazepin-4(5H)-yl)quinazolin-4-amine] | 0.023 µM
31 | Cc1ccc2nc(N3CCS(=O)(=O)c4ccccc4C3)cc(NC3CCCNC3)c2c1 (stereo not shown) [Example 3-40, 2-(1,1-Dioxido-2,3-dihydro-1,4-benzothiazepin-4(5H)-yl)-6-methyl-N-(piperidin-3-yl)quinolin-4-amine] | 0.022 µM
32 | CC(=O)NCCCNc1cc(N2CCS(=O)(=O)c3ccccc3C2)nc2ccc(C)cc12 [Example 63-3, N-(3-{[2-(1,1-Dioxido-2,3-dihydro-1,4-benzothiazepin-4(5H)-yl)-6-methylquinolin-4-yl]amino}propyl)acetamide] | 0.007 µM
33 | Cc1ccc2nc(N3CCS(=O)(=O)c4ccccc4C3)cc(Nc3cccc(N)c3)c2c1 [Example 15-1, N-[2-(1,1-Dioxido-2,3-dihydro-1,4-benzothiazepin-4(5H)-yl)-6-methylquinolin-4-yl]benzene-1,3-diamine] | 7.89 µM
34 | Cc1ccc2nc(N3CCS(=O)(=O)c4ccccc4C3)cc(NCC3(CN)CS(=O)(=O)C3)c2c1 [Example 6-2, N-{[3-(Aminomethyl)-1,1-dioxidothietan-3-yl]methyl}-2-(1,1-dioxido-2,3-dihydro-1,4-benzothiazepin-4(5H)-yl)-6-methylquinolin-4-amine] | 0.908 µM
